According to publication doi:10.1101/2020.10.22.350827v1 (biorxiv, 2020):
Substitutions are numbered along the chain they refer to.

Key:
[1] = target: T1, Nluc-A1R (adenosine A1 receptor) H264A (Homo sapiens, UniProt P30542, H264A); test: cell-based; set-up: species or system HEK 293
T1 sequence (P30542 1-326 H264A): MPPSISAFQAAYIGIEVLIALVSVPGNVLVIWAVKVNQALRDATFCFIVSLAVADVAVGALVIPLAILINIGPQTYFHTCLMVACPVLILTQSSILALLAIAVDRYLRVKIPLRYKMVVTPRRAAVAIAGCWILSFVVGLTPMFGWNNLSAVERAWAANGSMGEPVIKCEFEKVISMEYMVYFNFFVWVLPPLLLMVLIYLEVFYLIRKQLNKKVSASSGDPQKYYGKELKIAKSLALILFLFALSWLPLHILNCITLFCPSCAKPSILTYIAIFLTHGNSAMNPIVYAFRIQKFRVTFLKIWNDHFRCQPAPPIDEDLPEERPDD

[2] = target: T2, Nluc-A1R (adenosine A1 receptor) L253T (Homo sapiens, UniProt P30542, L253T); test: cell-based; set-up: species or system HEK 293
T2 sequence (P30542 1-326 L253T): T1 sequence (P30542 1-326 H264A) with L253T, A264H

[3] = target: T3, Nluc-A1R (adenosine A1 receptor) N148A (Homo sapiens, UniProt P30542, N148A); test: cell-based; set-up: species or system HEK 293
T3 sequence (P30542 1-326 N148A): T1 sequence (P30542 1-326 H264A) with N148A, A264H

[4] = target: T4, Nluc-A1R (adenosine A1 receptor) N70A (Homo sapiens, UniProt P30542, N70A); test: cell-based; set-up: species or system HEK 293
T4 sequence (P30542 1-326 N70A): T1 sequence (P30542 1-326 H264A) with N70A, A264H

[5] = target: T5, Nluc-A1R (adenosine A1 receptor) Y12A (Homo sapiens, UniProt P30542, Y12A); test: cell-based; set-up: species or system HEK 293
T5 sequence (P30542 1-326 Y12A): T1 sequence (P30542 1-326 H264A) with Y12A, A264H

[6] = target: T6, Nluc-A1R (adenosine A1 receptor) L258A (Homo sapiens, UniProt P30542, L258A); test: cell-based; set-up: species or system HEK 293
T6 sequence (P30542 1-326 L258A): T1 sequence (P30542 1-326 H264A) with L258A, A264H

[7] = target: T7, Nluc-A1R (adenosine A1 receptor) (Homo sapiens, UniProt P30542, I69A); test: NanoBRET competition binding, live HEK […] cells; type: cell-based
T7 sequence (P30542 1-326 I69A): T1 sequence (P30542 1-326 H264A) with I69A, A264H

- Ki [1]: 955 nM
- Ki [2]: 2040 nM
- Ki [3]: 708 nM
- Ki [4]: 891 nM
- Ki [5]: 1660 nM
- Ki [6]: 1410 nM
- Ki [7]: 45700 nM
SMILES: OC[C@H]1O[C@@H](n2cnc3c(N[C@@H]4CCC[C@H]4O)ncnc32)[C@H](O)[C@@H]1O [compound 6, HOCPA]
